Test results from patent US5116855A, “Rhodanine derivatives and pharmaceutical compositions” (Nisshin Flour Milling Co., Ltd., priority 1989, dated 1992).

Target: T1, aldose reductase (Rattus norvegicus, UniProt P07943)
T1 construct: the lenses were excised and homogenized in cold distilled water; from tissue; host or cells: lens of male SD rats, homogenate supernatant (crude enzyme)
Test: Inhibitory activity against aldose reductase (crude enzyme from rat lenses, NADPH oxidation at 340 nm, D,L-glyceraldehyde substrate)
Type: biochemical
Conditions: aldose reductase from SD rat lenses, pH 6.2, 30° C.; for inhibition at 10 µM: pH 6.2, 10^-5 M; for inhibition at 10 µM / inhibition at 1 µM: read-out: Percentage of inhibition (%); for inhibition at 1 µM: pH 6.2, 10^-6 M
Method: The compounds of the present invention were evaluated for the inhibitory activity against aldose reductase according to the following assay procedure.
Enzyme activity was assayed according to the modification [Biochemical Pharmacology, 25, 2505 (1976)] of the method described in J. Biol. Chem., 240, 877-882 (1965).
SD strain male rats were sacrificed by decapitation, the lenses were excised and homogenized in cold distilled water. The homogenate was then centrifuged and the supernatant was used as the crude aldose reductase solution.
Separately, a 0.1 M sodium phosphate buffer (pH 6.2) containing 0.4 M ammonium sulfate was prepared at 30° C. In this buffer were dissolved the present compound, the crude aldose reductase solution and nicotinamide-adenine dinucleotide phosphate, reduced form (NADPH). The mixture was preincubated at 30° C. for 3 minutes and the reaction was initiated by addition of D,L-glyceraldehyde. In this case, the concentration of the present compound dissolved was 10^-5 M and 10^-6 M, respectively. The total amount of the assay mixture was 1.0 ml, containing 0.16 mM of NADPH, 10 mM of D,L-glyceraldehyde and 0.010-0.016 units of aldose reductase.
The inhibitory activity of the present compounds against aldose reductase was measured using each 1.0 ml of the reaction mixture containing the present compound in the above concentration. In this measurement, the rate of NADPH oxidation was followed by recording the decrease in absorbance at 340 nm. The inhibitory activity of the present compounds against aldose reductase as measured was expressed in percentage of inhibition (%) as a relative activity based on a control value.

| Compound | inhibition at 10 µM [%] | inhibition at 1 µM [%] | Percentage of inhibition (%) (10^-5 M) | Percentage of inhibition (%) (10^-6 M) |
| --- | --- | --- | --- | --- |
| CCCCOC(=O)COc1ccc(Cl)cc1C=CC(C)=C1SC(=S)NC1=O (single isomer, unassigned) [51 Isomer A] | 51.4 | – | – | – |
| CCOC(=O)CCC(C=Cc1ccc(C(=O)OC)cc1)=C1SC(=S)NC1=O [Example 12, Ethyl 6-(4-methoxycarbonylphenyl)-4-(4-oxo-2-thioxo-5-thiazolidinylidene)-5-hexenoate] | 42.8 | – | – | – |
| CCCCCCC(C=Cc1ccc(C(=O)O)cc1)=C1SC(=S)NC1=O (single isomer, unassigned) [26 Isomer B] | – | – | 52.1 | – |
| CCCCOC(=O)COc1ccc(Cl)cc1C=CC(C)=C1SC(=S)NC1=O (single isomer, unassigned) [51 Isomer B] | – | – | 58.7 | – |
| COC(=O)COc1ccc(C(C)C)cc1C=CC(C)=C1SC(=S)NC1=O (single isomer, unassigned) [62 Isomer A] | 48.3 | – | – | – |
| CCCCCCC(CCc1ccc(CCC(=O)O)cc1)=C1SC(=S)NC1=O (single isomer, unassigned) [33 Isomer A] | 42.9 | – | – | – |
| CCCC(CCc1ccccc1OCC(=O)O)=C1SC(=S)NC1=O (single isomer, unassigned) [27 Isomer A] | 90.6 | 53.1 | – | – |
| CCOC(=O)CCC(C=Cc1ccc(C#N)cc1)=C1SC(=S)NC1=O [Example 7, Ethyl 6-(4-cyanophenyl)-4-(4-oxo-2-thioxo-5-thiazolidinylidene)-5-hexenoate] | 50.9 | – | – | – |
| CCOC(=O)CCC(C=Cc1cccc(O)c1)=C1SC(=S)NC1=O (single isomer, unassigned) [8 Isomer B] | – | – | 43.1 | – |
| CCCCCCC(C=Cc1ccc(OCc2nn[nH]n2)cc1)=C1SC(=S)NC1=O [Example 4] | 62.6 | 29.9 | – | – |
| CC(C=Cc1ccc(OCC(=O)O)c(OCC(=O)O)c1)=C1SC(=S)NC1=O (single isomer, unassigned) [83 Isomer B] | – | – | 75.8 | 36.8 |
| CCCC(=Cc1ccccc1OCC(=O)OC)C=C1SC(=S)NC1=O (single isomer, unassigned) [61 Isomer B] | – | – | 77.2 | 39.0 |
| O=C(O)CCC(C=Cc1ccc(C(=O)O)cc1)=C1SC(=S)NC1=O [Example 29, 6-(4-Carboxyphenyl)-4-(4-oxo-2-thioxo-5-thiazolidinylidene)-5-hexenoic acid] | 82.8 | 38.5 | – | – |
| CC(C=Cc1ccc(OCC(=O)O)cc1)=C1SC(=S)NC1=O (single isomer, unassigned) [21 Isomer A] | 94.9 | 78.3 | – | – |

The next lines start with the values.

| inhibition at 10 µM [%] | inhibition at 1 µM [%] | Percentage of inhibition (%) (10^-5 M) | Percentage of inhibition (%) (10^-6 M) | Compound |
| --- | --- | --- | --- | --- |
| 95.3 | 79.4 | – | – | CC(C=Cc1ccccc1OCC(=O)O)=C1SC(=S)NC1=O [Example 67, 2-[3-(4-Oxo-2-thioxo-5-thiazolinylidene)-1-butenyl]phenoxyacetic acid] |
| 55.2 | 34.3 | – | – | COC(=O)COc1ccc(OC)cc1C=CC(C)=C1SC(=S)NC1=O [Example 65, Methyl 4-methoxy-2-[3-(4-oxo-2-thioxo-5-thiazolinylidene)-1-butenyl]phenoxyacetate] |
| 75.4 | – | – | – | CC(C=Cc1cc(Br)cc(Br)c1OCC(=O)O)=C1SC(=S)NC1=O [Example 81, 2,4-Dibromo-6-[3-(4-oxo-2-thioxo-5-thiazolinylidene)-1-butenyl]phenoxyacetic acid] |
| – | – | 77.6 | 35.9 | 5-[α-Methyl-4-(1H-tetrazol-5-yl)cinnamylidene)-4-oxo-2-thioxothiazolidine [Example 17] |
| 89.6 | 60.5 | – | – | CC(C=Cc1cc(C)c(OCC(=O)O)c(C)c1)=C1SC(=S)NC1=O [Example 87, 2,6-Dimethyl-4-[3-(4-oxo-2-thioxo-5-thiazolinylidene)-1-butenyl]phenoxyacetic acid] |
| 48 | – | – | – | CC(C=Cc1cc(Cl)ccc1OCC(=O)OCc1ccccc1)=C1SC(=S)NC1=O [Example 50, Benzyl 4-chloro-2-[3-(4-oxo-2-thioxo-5-thiazolinylidene)-1-butenyl]phenoxyacetate] |
| 71.3 | 32 | – | – | CCOC(=O)COc1ccc(C=C(C)C=C2SC(=S)NC2=O)cc1OC [Example 53, Ethyl 2-methoxy-4-[2-methyl-3-(4-oxo-2-thioxo-5-thiazolinylidene)-1-propenyl]phenoxyacetate] |
| 63.9 | 27.1 | – | – | COC(=O)COc1ccc(Br)cc1C=CC(C)=C1SC(=S)NC1=O [Example 56, Methyl 4-bromo-2-[3-(4-oxo-2-thioxo-5-thiazolinylidene)-1-butenyl]phenoxyacetate] |
| 74.3 | – | – | – | COc1cc(C=CC(C)=C2SC(=S)NC2=O)cc(OC)c1OCC(=O)O [Example 74, 2,6-Dimethoxy-4-[3-(4-oxo-2-thioxo-5-thiazolinylidene)-1-butenyl]phenoxyacetic acid] |
| 78.4 | 46.4 | – | – | COc1cc(CCC(C)=C2SC(=S)NC2=O)ccc1OCC(=O)O [Example 69, 2-Methoxy-4-[3-(4-oxo-2-thioxo-5-thiazolinylidene)butyl]-phenoxyacetic acid] |
| 87.4 | 62.2 | – | – | CCOc1cc(C=CC(C)=C2SC(=S)NC2=O)ccc1OCC(=O)O [Example 70] |
| 80 | 30.5 | – | – | COC(=O)COc1ccc(Cl)cc1C=CC(C)=C1SC(=S)NC1=O [Example 49, Methyl 4-chloro-2-[3-(4-oxo-2-thioxo-5-thiazolinylidene)-1-butenyl]phenoxyacetate] |
| 93.3 | 79.1 | – | – | COc1ccc(OCC(=O)O)c(C=CC(C)=C2SC(=S)NC2=O)c1 [Example 88, 4-Methoxy-2-[3-(4-oxo-2-thioxo-5-thiazolinylidene)-1-butenyl]phenoxyacetic acid] |
| 73.8 | – | – | – | CCOc1cc(CCC(C)=C2SC(=S)NC2=O)ccc1OCC(=O)O [Example 71, 2-Ethoxy-4-[3-(4-oxo-2-thioxo-5-thiazolinylidene)butyl]phenoxyacetic acid] |
| 69.1 | – | – | – | COC(=O)COc1c(OC)cc(C=CC(C)=C2SC(=S)NC2=O)cc1OC [Example 48, Methyl 2,6-dimethoxy-4-[3-(4-oxo-2-thioxo-5-thiazolinylidene)-1-butenyl]phenoxyacetate] |
| 73 | – | – | – | O=C(O)CCC(C=Cc1cccs1)=C1SC(=S)NC1=O [Example 30, 6-(2-Thienyl)-4-(4-oxo-2-thioxo-5-thiazolidinylidene)-5-hexenoic acid] |
| 54.2 | 33.8 | – | – | COC(=O)COc1ccc(C=CC(C)=C2SC(=S)NC2=O)cc1OC [Example 42, Methyl 2-methoxy-4-[3-(4-oxo-2-thioxo-5-thiazolinylidene)-1-butenyl]phenoxyacetate] |
| 92.9 | 85.7 | – | – | CC(C=Cc1cc(C(F)(F)F)ccc1OCC(=O)O)=C1SC(=S)NC1=O [Example 89, 4-Trifluoromethyl-2-[3-(4-oxo-2-thioxo-5-thiazolinylidene)-1-butenyl]phenoxyacetic acid] |
